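In this assay, cells in 96-well plates receive the compound at five concentrations for 48 hours. Endpoints are linearly interpolated between the surrounding concentrations. TGI: concentration producing complete growth inhibition.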
System: T-47D breast
Assay: NCI anticancer screen, dose series, 48 h

Structure (SMILES)	TGI
Cc1ccc(O)c(-c2cc(-c3cccc(Br)c3)on2)c1	> 100 µM
ClC(Cl)(Cl)C(N1CCN(c2ccccc2)CC1)N1CCN(c2ccccc2)CC1	> 100 µM
O=c1c(Cc2c(O)ccc3ccccc23)nnc2sc(-c3nn4c(=O)c(Cc5c(O)ccc6ccccc56)nnc4s3)nn12	> 100 µM
Cc1[nH]c(=O)[nH]c(=S)c1C(=O)NC1C2CCCCC2NC2CCCCC21 (stereo not given)	43.8 µM
C/C(=C\COc1cc(O)c2c(c1)C(=O)c1cc(C)cc(O)c1C2=O)CCC1OC1(C)C (stereo not given)	> 100 µM

System: HCT-15 colon
Assay: NCI anticancer screen, dose series, 48 h

Structure (SMILES)	TGI
Cc1ccc(O)c(-c2cc(-c3cccc(Br)c3)on2)c1	> 100 µM
ClC(Cl)(Cl)C(N1CCN(c2ccccc2)CC1)N1CCN(c2ccccc2)CC1	> 100 µM
O=c1c(Cc2c(O)ccc3ccccc23)nnc2sc(-c3nn4c(=O)c(Cc5c(O)ccc6ccccc56)nnc4s3)nn12	> 100 µM
Cc1[nH]c(=O)[nH]c(=S)c1C(=O)NC1C2CCCCC2NC2CCCCC21 (stereo not given)	25.9 µM
C/C(=C\COc1cc(O)c2c(c1)C(=O)c1cc(C)cc(O)c1C2=O)CCC1OC1(C)C (stereo not given)	> 100 µM

System: HT29 colon
Assay: NCI anticancer screen, dose series, 48 h

Structure (SMILES)	TGI
Cc1ccc(O)c(-c2cc(-c3cccc(Br)c3)on2)c1	67.3 µM
ClC(Cl)(Cl)C(N1CCN(c2ccccc2)CC1)N1CCN(c2ccccc2)CC1	> 100 µM
O=c1c(Cc2c(O)ccc3ccccc23)nnc2sc(-c3nn4c(=O)c(Cc5c(O)ccc6ccccc56)nnc4s3)nn12	> 100 µM
Cc1[nH]c(=O)[nH]c(=S)c1C(=O)NC1C2CCCCC2NC2CCCCC21 (stereo not given)	48 µM
C/C(=C\COc1cc(O)c2c(c1)C(=O)c1cc(C)cc(O)c1C2=O)CCC1OC1(C)C (stereo not given)	> 100 µM

System: MDA-MB-231 breast
Assay: NCI anticancer screen, dose series, 48 h

Structure (SMILES)	TGI
Cc1ccc(O)c(-c2cc(-c3cccc(Br)c3)on2)c1	> 100 µM
ClC(Cl)(Cl)C(N1CCN(c2ccccc2)CC1)N1CCN(c2ccccc2)CC1	> 100 µM
O=c1c(Cc2c(O)ccc3ccccc23)nnc2sc(-c3nn4c(=O)c(Cc5c(O)ccc6ccccc56)nnc4s3)nn12	> 100 µM
Cc1[nH]c(=O)[nH]c(=S)c1C(=O)NC1C2CCCCC2NC2CCCCC21 (stereo not given)	33.1 µM
C/C(=C\COc1cc(O)c2c(c1)C(=O)c1cc(C)cc(O)c1C2=O)CCC1OC1(C)C (stereo not given)	> 100 µM

System: SN12C renal
Assay: NCI anticancer screen, dose series, 48 h

Structure (SMILES)	TGI
Cc1ccc(O)c(-c2cc(-c3cccc(Br)c3)on2)c1	55.1 µM
ClC(Cl)(Cl)C(N1CCN(c2ccccc2)CC1)N1CCN(c2ccccc2)CC1	> 100 µM
O=c1c(Cc2c(O)ccc3ccccc23)nnc2sc(-c3nn4c(=O)c(Cc5c(O)ccc6ccccc56)nnc4s3)nn12	> 100 µM
Cc1[nH]c(=O)[nH]c(=S)c1C(=O)NC1C2CCCCC2NC2CCCCC21 (stereo not given)	58 µM
C/C(=C\COc1cc(O)c2c(c1)C(=O)c1cc(C)cc(O)c1C2=O)CCC1OC1(C)C (stereo not given)	> 100 µM

System: SK-OV-3 ovarian
Assay: NCI anticancer screen, dose series, 48 h

Structure (SMILES)	TGI
Cc1ccc(O)c(-c2cc(-c3cccc(Br)c3)on2)c1	68.6 µM
C/C(=C\COc1cc(O)c2c(c1)C(=O)c1cc(C)cc(O)c1C2=O)CCC1OC1(C)C (stereo not given)	> 100 µM

System: MALME-3M melanoma
Assay: NCI anticancer screen, dose series, 48 h

Structure (SMILES)	TGI
Cc1ccc(O)c(-c2cc(-c3cccc(Br)c3)on2)c1	68.9 µM
ClC(Cl)(Cl)C(N1CCN(c2ccccc2)CC1)N1CCN(c2ccccc2)CC1	> 100 µM
O=c1c(Cc2c(O)ccc3ccccc23)nnc2sc(-c3nn4c(=O)c(Cc5c(O)ccc6ccccc56)nnc4s3)nn12	> 100 µM
Cc1[nH]c(=O)[nH]c(=S)c1C(=O)NC1C2CCCCC2NC2CCCCC21 (stereo not given)	46.8 µM
C/C(=C\COc1cc(O)c2c(c1)C(=O)c1cc(C)cc(O)c1C2=O)CCC1OC1(C)C (stereo not given)	> 100 µM

System: HOP-62 NSCLC
Assay: NCI anticancer screen, dose series, 48 h

Structure (SMILES)	TGI
Cc1ccc(O)c(-c2cc(-c3cccc(Br)c3)on2)c1	> 100 µM
ClC(Cl)(Cl)C(N1CCN(c2ccccc2)CC1)N1CCN(c2ccccc2)CC1	> 100 µM
O=c1c(Cc2c(O)ccc3ccccc23)nnc2sc(-c3nn4c(=O)c(Cc5c(O)ccc6ccccc56)nnc4s3)nn12	> 100 µM
Cc1[nH]c(=O)[nH]c(=S)c1C(=O)NC1C2CCCCC2NC2CCCCC21 (stereo not given)	32.9 µM
C/C(=C\COc1cc(O)c2c(c1)C(=O)c1cc(C)cc(O)c1C2=O)CCC1OC1(C)C (stereo not given)	> 100 µM

System: OVCAR-4 ovarian
Assay: NCI anticancer screen, dose series, 48 h

Structure (SMILES)	TGI
Cc1ccc(O)c(-c2cc(-c3cccc(Br)c3)on2)c1	34.6 µM
ClC(Cl)(Cl)C(N1CCN(c2ccccc2)CC1)N1CCN(c2ccccc2)CC1	> 100 µM
O=c1c(Cc2c(O)ccc3ccccc23)nnc2sc(-c3nn4c(=O)c(Cc5c(O)ccc6ccccc56)nnc4s3)nn12	> 100 µM
Cc1[nH]c(=O)[nH]c(=S)c1C(=O)NC1C2CCCCC2NC2CCCCC21 (stereo not given)	50.7 µM
C/C(=C\COc1cc(O)c2c(c1)C(=O)c1cc(C)cc(O)c1C2=O)CCC1OC1(C)C (stereo not given)	> 100 µM

System: HS 578T breast
Assay: NCI anticancer screen, dose series, 48 h

Structure (SMILES)	TGI
Cc1ccc(O)c(-c2cc(-c3cccc(Br)c3)on2)c1	> 100 µM
ClC(Cl)(Cl)C(N1CCN(c2ccccc2)CC1)N1CCN(c2ccccc2)CC1	> 100 µM
O=c1c(Cc2c(O)ccc3ccccc23)nnc2sc(-c3nn4c(=O)c(Cc5c(O)ccc6ccccc56)nnc4s3)nn12	> 100 µM
Cc1[nH]c(=O)[nH]c(=S)c1C(=O)NC1C2CCCCC2NC2CCCCC21 (stereo not given)	61.8 µM
C/C(=C\COc1cc(O)c2c(c1)C(=O)c1cc(C)cc(O)c1C2=O)CCC1OC1(C)C (stereo not given)	> 100 µM

System: A498 renal
Assay: NCI anticancer screen, dose series, 48 h

Structure (SMILES)	TGI
Cc1ccc(O)c(-c2cc(-c3cccc(Br)c3)on2)c1	> 100 µM
ClC(Cl)(Cl)C(N1CCN(c2ccccc2)CC1)N1CCN(c2ccccc2)CC1	> 100 µM
O=c1c(Cc2c(O)ccc3ccccc23)nnc2sc(-c3nn4c(=O)c(Cc5c(O)ccc6ccccc56)nnc4s3)nn12	> 100 µM
Cc1[nH]c(=O)[nH]c(=S)c1C(=O)NC1C2CCCCC2NC2CCCCC21 (stereo not given)	41.2 µM
C/C(=C\COc1cc(O)c2c(c1)C(=O)c1cc(C)cc(O)c1C2=O)CCC1OC1(C)C (stereo not given)	> 100 µM

System: IGROV1 ovarian
Assay: NCI anticancer screen, dose series, 48 h

Structure (SMILES)	TGI
Cc1ccc(O)c(-c2cc(-c3cccc(Br)c3)on2)c1	> 100 µM
ClC(Cl)(Cl)C(N1CCN(c2ccccc2)CC1)N1CCN(c2ccccc2)CC1	> 100 µM
O=c1c(Cc2c(O)ccc3ccccc23)nnc2sc(-c3nn4c(=O)c(Cc5c(O)ccc6ccccc56)nnc4s3)nn12	> 100 µM
Cc1[nH]c(=O)[nH]c(=S)c1C(=O)NC1C2CCCCC2NC2CCCCC21 (stereo not given)	33.2 µM
C/C(=C\COc1cc(O)c2c(c1)C(=O)c1cc(C)cc(O)c1C2=O)CCC1OC1(C)C (stereo not given)	> 100 µM

System: NCI-H460 lung
Assay: NCI anticancer screen, dose series, 48 h

Structure (SMILES)	TGI
Cc1ccc(O)c(-c2cc(-c3cccc(Br)c3)on2)c1	> 100 µM
ClC(Cl)(Cl)C(N1CCN(c2ccccc2)CC1)N1CCN(c2ccccc2)CC1	> 100 µM
Cc1[nH]c(=O)[nH]c(=S)c1C(=O)NC1C2CCCCC2NC2CCCCC21 (stereo not given)	31.6 µM
C/C(=C\COc1cc(O)c2c(c1)C(=O)c1cc(C)cc(O)c1C2=O)CCC1OC1(C)C (stereo not given)	> 100 µM

System: SF-539 CNS
Assay: NCI anticancer screen, dose series, 48 h

Structure (SMILES)	TGI
Cc1ccc(O)c(-c2cc(-c3cccc(Br)c3)on2)c1	> 100 µM
C/C(=C\COc1cc(O)c2c(c1)C(=O)c1cc(C)cc(O)c1C2=O)CCC1OC1(C)C (stereo not given)	> 100 µM

System: OVCAR-8 ovarian
Assay: NCI anticancer screen, dose series, 48 h

Structure (SMILES)	TGI
Cc1ccc(O)c(-c2cc(-c3cccc(Br)c3)on2)c1	67.3 µM
ClC(Cl)(Cl)C(N1CCN(c2ccccc2)CC1)N1CCN(c2ccccc2)CC1	> 100 µM

— PubChem BioAssay (NCI)
